Measurements published in the NIST ThermoML archive (doi:10.1021/je800940j).

What was measured:
[1] = xn = mol fraction of the nth substance listed; conditions: Liquid; for viscosity: Concentric cylinders viscometry
[2] = 101 kPa, Liquid

C1CC[C@H]2CCCC[C@H]2C1 [cis-decahydronaphthalene] + C1CC[C@H]2CCCC[C@@H]2C1
[1], 101.3 kPa, x1 = 0.4106
Conditions | mass density [kg/m3] | viscosity [mPa·s]
283.15 K | 887.8 | 3.097
293.15 K | 880.25 | 2.504
303.15 K | 872.7 | 2.066
313.15 K | 865.15 | 1.734
323.15 K | 857.65 | 1.477

Cc1ccccc1 [toluene]
[2]
Conditions | mass density [kg/m3]
283.15 K | 876.1
293.15 K | 866.75
303.15 K | 857.48
313.15 K | 848.08
323.15 K | 838.7

[2], Automatic viscometer
Conditions | viscosity [mPa·s]
283.15 K | 0.6657
293.15 K | 0.5958
303.15 K | 0.5368
313.15 K | 0.4859
323.15 K | 0.4408

Cc1ccccc1 [toluene] + C1CCCCC1
[1], 101 kPa, x2 = 0
Conditions | mass density [kg/m3] | viscosity [mPa·s]
283.15 K | 876.1 | 0.6657
293.15 K | 866.75 | 0.5958
303.15 K | 857.48 | 0.5368
313.15 K | 848.08 | 0.4859
323.15 K | 838.7 | 0.4408

C1CCCCC1 [cyclohexane]
[2]
Conditions | mass density [kg/m3]
283.15 K | 787.95
293.15 K | 778.7
303.15 K | 769.2
313.15 K | 759.65
323.15 K | 749.9

[2], Concentric cylinders viscometry
Conditions | viscosity [mPa·s]
283.15 K | 1.18
293.15 K | 0.9847
303.15 K | 0.8295
313.15 K | 0.7061
323.15 K | 0.5978
